Assay [1] addresses T1, Human GPR120 short form (Homo sapiens, UniProt Q5NUL3).
T1 construct: expressed in transfected cells
T1 sequence (Q5NUL3 1-361): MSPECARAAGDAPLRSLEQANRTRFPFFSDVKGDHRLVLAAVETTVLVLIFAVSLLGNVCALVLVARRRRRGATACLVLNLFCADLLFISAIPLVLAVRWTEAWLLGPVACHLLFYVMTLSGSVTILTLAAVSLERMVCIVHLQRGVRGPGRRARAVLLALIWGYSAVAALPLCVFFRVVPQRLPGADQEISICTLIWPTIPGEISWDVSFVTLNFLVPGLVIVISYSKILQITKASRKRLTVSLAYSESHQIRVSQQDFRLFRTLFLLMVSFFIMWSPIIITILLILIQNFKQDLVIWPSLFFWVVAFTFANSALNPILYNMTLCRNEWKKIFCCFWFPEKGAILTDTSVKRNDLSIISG
In words: Human GPR120 calcium flux assay, Procedure Calcium B (4200 cells/well). Format: cell-based. The procedure, abridged: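 HEK293 cells stably expressing human GPR120 (NM_001195755.1), 4200 cells/well, starved 1 h and loaded with Fluo-4 NW plus probenecid. Ligand-evoked calcium flux read on FLIPR for 300 s after a 10 s baseline. RFU = Fmax−Fmin; EC50 from four-parameter concentration-response fit.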
A general note: Calcium flux is commonly read through the fluorescence of an indicator in the cells.

The target of assay [2] is T2, human GPR40 (Homo sapiens, UniProt O14842).
T2 construct: expressed in transfected cells
T2 sequence (O14842 whole entry): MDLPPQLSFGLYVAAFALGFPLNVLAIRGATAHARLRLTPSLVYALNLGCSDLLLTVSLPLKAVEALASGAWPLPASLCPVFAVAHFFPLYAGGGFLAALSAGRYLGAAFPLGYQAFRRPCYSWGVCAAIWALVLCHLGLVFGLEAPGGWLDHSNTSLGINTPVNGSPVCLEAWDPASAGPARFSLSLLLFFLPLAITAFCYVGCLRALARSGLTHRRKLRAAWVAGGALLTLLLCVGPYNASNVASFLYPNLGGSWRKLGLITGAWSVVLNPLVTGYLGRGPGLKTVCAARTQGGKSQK
In words: GPR40 calcium flux assay, human GPR40. Format: cell-based. To be noted: HEK293 cells stably expressing GPR40; table does not say human or rat. The gist of the method:
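Cells preincubated 1 h at 37° C. in HBSS, 20 mM HEPES, 0.1% BSA, then Fluo 8 calcium dye 30 min at 37° C. and 15 min at room temperature.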

The term EC50 denotes the concentration giving half of the maximal effect.

In the case of `C=C(Br)c1cc(OCC2=C(C3CCCC3)CCC2)ccc1CCC(=O)O` [Compound 448, 3-[2-(1-bromovinyl)-4-[(2-cyclopentylcyclopenten-1-yl)methoxy]phenyl]Propanoic Acid], the EC50 in assay [1] was greater than 5000 nM; in assay [2], 2040 nM.
The like results for `O=C(O)CCc1cc(F)c(OCC2=C(C3CCCC3)CCC2)cc1Cl` [Compound 450, 3-[2-chloro-4-[(2-cyclopentylcyclopenten-1-yl)methoxy]-5-fluoro-phenyl]Propanoic Acid] were, in that order, 273 nM and 118 nM.
Taken in the same sequence, the figures for `O=C(O)CCc1ccc(OCC2=C(C3C=CCC3)CCC2)cc1Cl` (stereo not shown) [Compound 451, 3-[2-chloro-4-[(2-cyclopent-2-en-1-ylcyclopenten-1-yl)methoxy]phenyl]Propanoic Acid] were 249 nM and 32 nM.
The like results for `O=C(O)CCc1ccc(OCC2=C(C3C=CCC3)CCC2)cc1` (stereo not shown) [Compound 452, 3-[4-[(2-cyclopent-2-en-1-ylcyclopenten-1-yl)methoxy]phenyl]Propanoic Acid] were, in that order, 127 nM and 170 nM.
Take `O=C(O)CCc1ccc(OCC2=C(C3C=CCC3)CCC2)cc1C(F)(F)F` (stereo not shown) [Compound 453, 3-[4-[(2-cyclopent-2-en-1-ylcyclopenten-1-yl)methoxy]-2-(trifluoromethyl)phenyl]Propanoic Acid]: the EC50 in assay [1] was 181 nM; in assay [2] it was 10 nM.
Taken in the same sequence, the figures for `C#Cc1cc(OCC2=C(C3CCCC3)CCC2)ccc1CCC(=O)O` [Compound 454, 3-[4-[(2-cyclopentylcyclopenten-1-yl)methoxy]-2-ethynyl-phenyl]Propanoic Acid] were 2250 nM and 513 nM.
The like results for `O=C(O)CCc1ccc(OCC2=C(C3CCC4CC43)CCC2)cc1` (stereo not shown) [Compound 455, 3-[4-[[2-(4-bicyclo[3.1.0]hexanyl)cyclopenten-1-yl]methoxy]phenyl]Propanoic Acid] were, in that order, 340 nM and 403 nM.
On to `O=C(O)CCc1ccc(OCC2=C(C3CCC4CC43)CCC2)cc1C(F)(F)F` (stereo not shown) [Compound 456, 3-[4-[[2-(4-bicyclo[3.1.0]hexanyl)cyclopenten-1-yl]methoxy]-2-(trifluoromethyl)phenyl]Propanoic Acid], for which the EC50 in assay [1] is 924 nM; in assay [2] it was 42 nM.
Taken in the same sequence, the figures for `O=C(O)CCc1ccc(OCC2=C(C3CCCC3)CC(F)(F)C2)cc1F` [Compound 457, 3-[4-[(2-cyclopentyl-4,4-difluoro-cyclopenten-1-yl)methoxy]-2-fluoro-phenyl]Propanoic Acid] were 126 nM and 46 nM.
Consider `CCC1CCCC(COc2ccc(CCC(=O)O)c(C)c2C)=C1c1ccc(Cl)cc1` (stereo not shown) [Compound 478, 3-[4-[[2-(4-chlorophenyl)-3-ethyl-cyclohexen-1-yl]methoxy]-2,3-dimethyl-phenyl]Propanoic Acid], for which the 50% effective concentration (EC50) in assay [1] and in assay [2] was greater than 5000 nM in each case.
Regarding `Cc1c(CCC(=O)O)ccc(OCC2=C(c3ccc(Cl)cc3)CC(C(C)C)CC2)c1C` (stereo not shown) [Compound 500, 3-[4-[[2-(4-chlorophenyl)-4-isopropyl-cyclohexen-1-yl]methoxy]-2,3-dimethyl-phenyl]Propanoic Acid], the figures for the EC50 in assay [1] and in assay [2] were 1530 nM and greater than 5000 nM, respectively.
As for `Cc1c(CCC(=O)O)ccc(OCC2=C(c3ccc(Cl)cc3)C(C(C)C)CCC2)c1C` (stereo not shown) [Compound 523, 3-[4-[[2-(4-chlorophenyl)-3-isopropyl-cyclohexen-1-yl]methoxy]-2,3-dimethyl-phenyl]Propanoic Acid], the 50% effective concentration (EC50) in assay [1] and in assay [2] was greater than 5000 nM throughout.
In the case of `Cc1c(CCC(=O)O)ccc(OCC2=C(c3ccc(Cl)cc3)CCC(C)(C)C2)c1C` [Compound 541, 3-[4-[[2-(4-chlorophenyl)-5,5-dimethyl-cyclohexen-1-yl]methoxy]-2,3-dimethyl-phenyl]Propanoic Acid], the figures for the concentration giving a half-maximal response (EC50) in assay [1] and in assay [2] were 1500 nM and 4760 nM, respectively.
The like results for `Cn1cc(C2=C(COc3c(F)cc(CCC(=O)O)cc3F)CC(F)(F)CC2)cn1` [Compound 544] were, in that order, 1350 nM and greater than 5000 nM.
As to `COC1CCC(c2ccc(C)cc2)=C(COc2ccc(CCC(=O)O)cc2)C1` (stereo not shown) [Compound 574, 3-[4-[[5-methoxy-2-(p-tolyl)cyclohexen-1-yl]methoxy]phenyl]Propanoic Acid], the EC50 in assay [1] is 2130 nM; in assay [2], 4410 nM.
For `COC1CCC(c2ccccc2C)=C(COc2ccc(CCC(=O)O)cc2)C1` (stereo not shown) [Compound 575, 3-[4-[[5-methoxy-2-(o-tolyl)cyclohexen-1-yl]methoxy]phenyl]Propanoic Acid], the concentration giving a half-maximal response (EC50) in assay [1] and in assay [2] was greater than 5000 nM each time.
As to `COC1CCC(c2ccccc2C)=C(COc2ccc(CCC(=O)O)c(C(F)(F)F)c2)C1` (stereo not shown) [Compound 576, 3-[4-[[5-methoxy-2-(o-tolyl)cyclohexen-1-yl]methoxy]-2-(trifluoromethyl)phenyl]Propanoic Acid], the figures for the EC50 in assay [1] and in assay [2] were greater than 5000 nM and 1570 nM, respectively.
Turning to `COC1CCC(c2ccc(C)cc2)=C(COc2ccc(CCC(=O)O)c(C(F)(F)F)c2)C1` (stereo not shown) [Compound 577, 3-[4-[[5-methoxy-2-(p-tolyl)cyclohexen-1-yl]methoxy]-2-(trifluoromethyl)phenyl]Propanoic Acid], the concentration for a half-maximal effect (EC50) was 1100 nM in assay [1] and 3010 nM in assay [2].
The like results for `CC(C)CC1=C(COc2ccc(CCC(=O)O)cc2)CCCC1` [Compound 578, 3-[4-[(2-isobutylcyclohexen-1-yl)methoxy]phenyl]Propanoic Acid] were, in that order, 1780 nM and 2140 nM.
Taken in the same sequence, the figures for `CC(C)CC1=C(COc2ccc(CCC(=O)O)c(C(F)(F)F)c2)CCCC1` [Compound 579, 3-[4-[(2-isobutylcyclohexen-1-yl)methoxy]-2-(trifluoromethyl)phenyl]Propanoic Acid] were 585 nM and 75 nM.
Taken in the same sequence, the figures for `CC(C)CC1=C(COc2ccc(CCC(=O)O)c(Cl)c2)CCCC1` [Compound 580, 3-[2-chloro-4-[(2-isobutylcyclohexen-1-yl)methoxy]phenyl]Propanoic Acid] were 1330 nM and 202 nM.
In the case of `O=C(O)CCc1ccc(OCC2=C(Cc3ccccc3)CCCC2)cc1` [Compound 581, 3-[4-[(2-benzylcyclohexen-1-yl)methoxy]phenyl]Propanoic Acid], the EC50 in assay [1] stood at 2110 nM; in assay [2], 591 nM.
Taken in the same sequence, the figures for `O=C(O)CCc1ccc(OCC2=C(Cc3ccccc3)CCCC2)cc1Cl` [Compound 582, 3-[4-[(2-benzylcyclohexen-1-yl)methoxy]-2-chloro-phenyl]Propanoic Acid] were 1210 nM and 77 nM.
Taken in the same sequence, the figures for `CCCCC1=C(COc2ccc(CCC(=O)O)c(Cl)c2)CCCC1` [Compound 583, 3-[4-[(2-butylcyclohexen-1-yl)methoxy]-2-chloro-phenyl]Propanoic Acid] were 765 nM and 294 nM.
On to `O=C(O)CCc1ccc(OCC2=C(Cc3ccccc3)CCCC2)cc1C(F)(F)F` [Compound 584, 3-[4-[(2-benzylcyclohexen-1-yl)methoxy]-2-(trifluoromethyl)phenyl]Propanoic Acid], for which the concentration for a half-maximal effect (EC50) in assay [1] amounted to 756 nM; in assay [2], 91 nM.
For the compound `CC(C)C1=C(COc2ccc(CCC(=O)O)cc2)CCCC1` [Compound 585, 3-[4-[(2-isopropylcyclohexen-1-yl)methoxy]phenyl]Propanoic Acid], the EC50 amounted to 1650 nM in assay [1] and 2420 nM in assay [2].
Take `CC(C)C1=C(COc2ccc(CCC(=O)O)c(C(F)(F)F)c2)CCCC1` [Compound 586, 3-[4-[(2-isopropylcyclohexen-1-yl)methoxy]-2-(trifluoromethyl)phenyl]Propanoic Acid]: the values for the EC50 in assay [1] and in assay [2] were 908 nM and 52 nM, respectively.
The like results for `CC(C)C1=C(COc2ccc(CCC(=O)O)c(Cl)c2)CCCC1` [Compound 587, 3-[2-chloro-4-[(2-isopropylcyclohexen-1-yl)methoxy]phenyl]Propanoic Acid] were, in that order, 1140 nM and 99 nM.
Taken in the same sequence, the figures for `CCCCC1=C(COc2ccc(CCC(=O)O)cc2)CCCC1` [Compound 588, 3-[4-[(2-butylcyclohexen-1-yl)methoxy]phenyl]Propanoic Acid] were 1140 nM and 1920 nM.
Taken in the same sequence, the figures for `CCCC1=C(COc2ccc(CCC(=O)O)cc2)CCCC1` [Compound 589, 3-[4-[(2-propylcyclohexen-1-yl)methoxy]phenyl]Propanoic Acid] were 3150 nM and 2390 nM.
As to `CCCC1=C(COc2ccc(CCC(=O)O)c(C(F)(F)F)c2)CCCC1` [Compound 590, 3-[4-[(2-propylcyclohexen-1-yl)methoxy]-2-(trifluoromethyl)phenyl]Propanoic Acid], the 50% effective concentration (EC50) in assay [1] amounted to 1360 nM; in assay [2], 316 nM.
As for `CCCC1=C(COc2ccc(CCC(=O)O)c(Cl)c2)CCCC1` [Compound 591, 3-[2-chloro-4-[(2-propylcyclohexen-1-yl)methoxy]phenyl]Propanoic Acid], the EC50 was determined as 2390 nM in assay [1] and 431 nM in assay [2].

The values are drawn from patent US11230526B1, “Cylcoalkenyl derivatives useful as agonists of the GPR120 and/or GPR40 receptors” (Janssen Pharmaceutica NV, priority 2018, dated 2022).
